How the values were obtained:
Human 11β HSD1 = target: T1, Human 11β HSD1 (Homo sapiens, UniProt P28845); experiment: biochemical; type: biochemical; details: Lineweaver-Burke plot, RIA detection, buffer 3, 10 μg/well microsomal protein, 30 min (FIG. 20); read-out: apparent Km
T1 construct: human hepatic microsomes were obtained from XenoTech, product H0610/Lot 0210078; tissue XenoTech H0610/Lot 0210078; host or cells: human liver (hepatic microsomes)
Method: Standard Operating Procedure for the 11β-Hydroxysteroid Dehydrogenase Type 1 cortisol Radioimmunoassay (11β HSD1 Cortisol RIA).
30 mM Tris-HCL, pH 7.2 containing 1 mM EDTA.
50 mM Tris-HCL, pH 8, containing 0.1 M NaCl and 0.1% gelatin.
Prepare 10 mM stock solutions in 100% DMSO at 100 times the required assay concentration. Dilute into assay buffer 1 in 25. Also dilute neat DMSO 1 in 25 into assay buffer for controls.
Dilute this 1 in 50 into assay buffer.
Prepare NADPH as a 1.8 mg/ml solution in assay buffer.
Mix these 3solutions 1:1:1 to make a solution of sufficient volume for 25 μl additions to each sample. Add 0.5 μCi tritiated cortisone per 25 μl and mix the solution well.
Dilute stock 20 mg/ml solution 1 in 100 with assay buffer.
Dilute stock antibody solution to 17 μg/ml in antibody binding buffer.
Make a 20 mg/ml solution in antibody binding buffer and chill on ice.
To a u-bottom polypropylene 96 well plate add: • 25 μl compound dilution or diluted DMSO to controls, NSB's and blanks • 10 μl 1 mM GA in DMSO (enzyme stop solution) to blanks • 25 μl substrate mixture to all samples • 50 μl diluted microsomes to all samples • Incubate plate for 30 min at 37° C. shaking p0 Add 10 μl enzyme stop solution to all wells except the blanks • Add 100 μl antibody solution to all wells except the NSB's, add antibody binding buffer to these wells • Incubate at 37° C. for 1 h • Chill plate on ice for 15 min • Add 50 μl/well charcoal solution and mix with an 8-channel pipette (4-5 aspirations) • Chill the plate on ice • Centrifuge at 4° C., 2000×g for 15 min • Transfer 100 μl supernatant into an Optiplate, also add 25 μl substrate mixture to 2 empty wells to indicate counting efficiency • Add 200 μl Microscint-40 to all wells and count on a Topcount Radioimmunoassay
The 11β HSD1 enzyme assay was carried out following the standard operating procedure described above in u-bottom polypropylene 96 well plates or 1.5 ml Eppendorf tubes as indicated for each experiment. Subsequent to stopping the enzyme reaction, 100 μl antibody prepared in buffer 3 unless otherwise indicated was added to test samples and 100 μl buffer 3 was added to the NSB samples. The samples were incubated for 1 hour at 37° C. and the chilled on ice for 15 mins. Dextran coated charcoal (50 μl/sample) prepared to the indicated concentration in buffer 3 was added and the samples were mixed (vortex for tubes and aspiration 5 times with an 8-channel pipette for 96 well plates) and chilled for a further 10 min. The samples were centrifuged at 2000×g for 15 min at 4° C. to pellet the charcoal. Aliquots of the supernatant (100 μl) were transferred to an Optiplate and counted on the Topcount in 150-200 μl Microscint 40. In some experiments, aliquots of supernatant were transferred to scintillation vials and counted on the Tricarb LSC in 5 ml Ultima Gold scintillant.

[1] = target: T2, human hepatic microsomal 11β HSD1 (Homo sapiens, UniProt P28845); type: biochemical; details: Lineweaver-Burke plot, 10 μg microsomal protein, 30 min at 37° C., Buffer 1 (FIG. 6); read-out: apparent Km for cortisone
T2 construct: human hepatic microsomes were obtained from XenoTech, product H0610/Lot 0210078; tissue XenoTech H0610/Lot 0210078; host or cells: human liver (hepatic microsomes)
T2 sequence (P28845 whole entry): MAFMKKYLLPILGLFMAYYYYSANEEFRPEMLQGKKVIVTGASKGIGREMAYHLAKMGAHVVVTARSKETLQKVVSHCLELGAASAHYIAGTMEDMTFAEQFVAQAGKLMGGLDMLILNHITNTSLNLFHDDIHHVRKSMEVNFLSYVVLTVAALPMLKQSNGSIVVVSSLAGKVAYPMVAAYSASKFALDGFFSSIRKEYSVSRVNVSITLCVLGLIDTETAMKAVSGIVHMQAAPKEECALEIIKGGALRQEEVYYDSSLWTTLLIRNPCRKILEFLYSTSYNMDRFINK
Method: Assay of Human and Rat Hepatic Microsomal 11β-HSD1 Activity using a TLC Separation of Substrate from Product
The assay was carried out in Buffer 2 and the cortisone concentration used was 2 μM containing 0.5 μCi per incubation ^3H-cortisone. Rat and human hepatic microsomes were tested at concentrations ranging from 400 μg to 50 μg microsomal protein per incubation in a final incubation volume of 100 μl in glass tubes. Buffer was substituted for microsomal protein for blanks. Samples were incubated for 1 h in a shaking water bath at 37° C. and the assay was stopped by the addition of 1 ml ethyl acetate. To correct for recovery, 50 μl ^14C-cortisol (approximately 4000 DPM per tube) was added to the samples followed by 200 μl 0.05% CaCl2. […] The upper organic phase was removed into clean tubes and dried down. […] DPM were measured on a TriCarb liquid scintillation counter using a dual label programme. Recovery was determined from the DPM obtained in 50 μl ^14C-cortisol solution which was counted with the samples.
In the next test, the same assay method was followed except that only human hepatic microsomes were examined and the concentration range of these was from 3.7 μg per sample to 100 μg per sample. The samples were incubated for 60 min, 45 min, 30 min or 15 min in a shaking water bath at 37° C. and were stopped, extracted and the substrate and product were separated as detailed above. […]

T1 sequence (P28845 whole entry): as above

COc1ccc(C(=O)Nc2ccc3c(c2)CCC3=O)cc1
melting point: 237 to 238 °C

CCCc1ccc(C(=O)Nc2ccc3c(c2)CCCC3=O)cc1
melting point: 168 to 170 °C

O=C(NCCc1cccs1)c1ccc(-c2ccccc2)cc1
melting point: 164 to 166 °C

CCCc1ccc(C(=O)Nc2ccc3sc(C)nc3c2Cl)cc1
melting point: 184 °C

COC(=O)c1cc2cc(NS(=O)(=O)c3cccc(Cl)c3C)ccc2o1
melting point: 168 to 168.4 °C

Cc1nc2c(Cl)c(NC(=O)Cc3ccc(Cl)cc3)ccc2s1
melting point: 227 to 229 °C

O=C(c1ccccc1)c1ccc(NC(=O)c2cc(Cl)ccc2Cl)cc1
melting point: 150 to 153 °C

C[C@]12CCC(=O)C=C1CC[C@@H]1[C@@H]2C(=O)C[C@@]2(C)[C@H]1CC[C@]2(O)C(=O)CO [cortisone, Cortisone]
Km (Human 11β HSD1): 0.7 µM | Km [1]: 0.66 µM

Cc1nc2c(Cl)c(NC(=O)c3cc(Cl)ccc3Cl)ccc2s1
melting point: 175 °C

COc1cccc(C(=O)Nc2ccc3sc(C)nc3c2Cl)c1
melting point: 177 to 179 °C

Cc1nc2c(Cl)c(NC(=O)c3cc(Cl)cc(Cl)c3)ccc2s1
melting point: 252 to 253 °C

CCCc1ccc(C(=O)NCCc2cccs2)cc1
melting point: 97 to 99 °C

Cc1nc2cc(NC(=O)c3cc(Cl)cc(Cl)c3)ccc2s1
melting point: 194 °C

O=C(Nc1ccc(C(=O)c2ccccc2)cc1)c1ccc(-c2ccccc2)cc1
melting point: 212 to 213 °C

COc1ccc(C(=O)Nc2ccc3sc(C)nc3c2Cl)cc1
melting point: 182 °C

Cc1nc2cc(N(C)C(=O)c3ccc(Cl)cc3Cl)ccc2n1C
melting point: 245 to 247 °C

O=C(Nc1ccc2c(c1)CCC2=O)c1ccc(-c2ccccc2)cc1
melting point: 217 to 219 °C

COc1cccc(CC(=O)Nc2ccc3sc(C)nc3c2Cl)c1
melting point: 147 to 148 °C

From patent US7230020B2, “11β-hydroxysteroid dehydrogenase inhibitors” (priority 2003, dated 2007)
